Values of other authors as cited in patent publication US6391332B1, “Therapeutic micronutrient composition for severe trauma, burns and critical illness” (Baxter International, Inc., priority 2000, dated 2002).

Tests used:
[1] = tested on: burn patients; details: 2-10 grams given during burn resuscitation
[2] = doses exceeding 40 grams a day
[3] = tested on: critically ill patients; details: glutamine supplementation, clinical trials

In the case of O=C1O[C@H]([C@@H](O)CO)C(O)=C1O [ascorbic acid], the “vascular permeability and fluid requirements” value [1] is given as “significantly decrease”.

In the case of N=C(N)NCCC[C@H](N)C(=O)O [arginine, L-arginine], the toxicity [2] is listed as “non-toxic”.

For NC(=O)CC[C@H](N)C(=O)O [glutamine, L-glutamine], the infection rate [3] is listed as “decreased infection rate”.
